pEC50: −log10 of the molar value. Where a SMILES comes first, the peptide text is derived from it. Bridges are numbered along the chain shown (N, C = ends). [ ]: non-standard residue; d: D form. Nle = CCCC[C@H](N)C(=O)O; Dap = NC[C@H](N)C(=O)O
Columns and labels:
mMC3R [1] = target: T1, mMC3R (Mus musculus, UniProt P33033); assay: Receptor binding study, competitive displacement of 125I-NDP-MSH at mMC3R; design: expressed in transfected cells; conditions: peptide at 10 μM
mMC3R [2] = target: T1, mMC3R; assay: Functional bioassay, CRE/β-galactosidase reporter in HEK-293 cells stably expressing mMC3R; conditions: for pharmacology in words at mMC3R: slight agonist = some stimulatory response at 100 μM, not enough to determine an EC50
Description: (§1) 5,000 to 15,000 post transfection cells were plated into 96 well Primera plates (Falcon) and incubated overnight. […] The assay media was aspirated and 50 μL of lysis buffer (250 mM Tris-HCl pH=8.0 and 0.1% Triton X-100) was added. The plates were stored at −80° overnight.
(§2) The plates containing the cell lysates were thawed the following day. Aliquots of 10 μL were taken from each well and transferred to another 96-well plate for relative protein determination. To the cell lysate plates, 40 μL phosphate-buffered saline with 0.5% BSA was added to each well. Subsequently, 150 μL substrate buffer (60 mM sodium phosphate, 1 mM MgCl2, 10 mM KCl, 5 mM β-mercaptoethanol, 200 mg/100 mL ONPG) was added to each well and the plates were incubated at 37°.
(§3) The sample absorbance, OD405, was measured using a 96 well plate reader (Molecular Devices). The relative protein was determined by adding 200 μL 1:5 dilution Bio Rad G250 protein dye:water to the 10 μL cell lysate sample taken previously, and the OD595 was measured on a 96 well plate reader (Molecular Devices). Data points were normalized both to the relative protein content and non-receptor dependent forskolin stimulation.
(§4) For data analysis, EC50 and pA2 values represent the mean of duplicate experiments performed in triplet, quadruplet or more independent experiments.

mMC4R [3] = target: T2, mMC4R (Mus musculus, UniProt P56450); assay: Functional bioassay, CRE/β-galactosidase reporter in HEK-293 cells stably expressing mMC4R
T2 sequence (P56450 whole entry): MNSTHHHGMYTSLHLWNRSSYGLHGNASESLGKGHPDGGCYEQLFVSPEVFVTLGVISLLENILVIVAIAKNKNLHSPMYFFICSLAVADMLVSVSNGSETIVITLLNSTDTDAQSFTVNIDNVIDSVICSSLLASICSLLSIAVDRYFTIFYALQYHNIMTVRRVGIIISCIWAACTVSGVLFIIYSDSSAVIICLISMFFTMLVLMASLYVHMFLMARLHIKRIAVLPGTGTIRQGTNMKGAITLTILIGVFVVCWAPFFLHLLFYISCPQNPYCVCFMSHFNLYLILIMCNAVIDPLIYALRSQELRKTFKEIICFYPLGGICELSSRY
Description: as §1, §2, §3, §4

mMC4R [4] = target: T2, mMC4R; assay: Receptor binding study, competitive displacement of 125I-NDP-MSH at mMC4R; design: expressed in transfected cells; conditions: peptide at 10 μM
mMC1R = mMC1R (Mus musculus, UniProt Q01727); assay: Functional bioassay, CRE/β-galactosidase reporter in HEK-293 cells stably expressing mMC1R; conditions: for pharmacology in words at mMC1R: slight agonist = some stimulatory response at 100 μM, not enough to determine an EC50
Chain of mMC1R (Q01727 whole entry): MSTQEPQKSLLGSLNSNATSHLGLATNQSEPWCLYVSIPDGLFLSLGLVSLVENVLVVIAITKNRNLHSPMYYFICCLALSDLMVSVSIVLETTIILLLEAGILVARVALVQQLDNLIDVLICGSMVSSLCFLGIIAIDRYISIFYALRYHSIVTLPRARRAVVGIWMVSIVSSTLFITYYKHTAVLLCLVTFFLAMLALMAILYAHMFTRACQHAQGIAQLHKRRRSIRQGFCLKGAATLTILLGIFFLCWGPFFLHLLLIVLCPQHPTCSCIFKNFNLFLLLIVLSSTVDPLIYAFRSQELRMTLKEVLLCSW
Description: as §1, §2, §3, §4

mMC5R = mMC5R (Mus musculus, UniProt P41149); assay: Functional bioassay, CRE/β-galactosidase reporter in HEK-293 cells stably expressing mMC5R; conditions: for pharmacology in words at mMC5R: slight agonist = some stimulatory response at 100 μM, not enough to determine an EC50
Chain of mMC5R (P41149 whole entry): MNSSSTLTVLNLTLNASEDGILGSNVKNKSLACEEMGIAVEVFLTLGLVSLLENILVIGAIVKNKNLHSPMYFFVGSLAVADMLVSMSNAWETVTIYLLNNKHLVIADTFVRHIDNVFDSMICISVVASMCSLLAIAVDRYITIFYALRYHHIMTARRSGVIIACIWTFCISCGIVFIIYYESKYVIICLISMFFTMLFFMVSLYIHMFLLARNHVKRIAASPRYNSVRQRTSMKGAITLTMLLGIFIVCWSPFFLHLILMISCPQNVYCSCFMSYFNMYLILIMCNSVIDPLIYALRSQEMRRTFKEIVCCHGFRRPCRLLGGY
Description: as §1, §2, §3, §4

T1 sequence (P33033 whole entry): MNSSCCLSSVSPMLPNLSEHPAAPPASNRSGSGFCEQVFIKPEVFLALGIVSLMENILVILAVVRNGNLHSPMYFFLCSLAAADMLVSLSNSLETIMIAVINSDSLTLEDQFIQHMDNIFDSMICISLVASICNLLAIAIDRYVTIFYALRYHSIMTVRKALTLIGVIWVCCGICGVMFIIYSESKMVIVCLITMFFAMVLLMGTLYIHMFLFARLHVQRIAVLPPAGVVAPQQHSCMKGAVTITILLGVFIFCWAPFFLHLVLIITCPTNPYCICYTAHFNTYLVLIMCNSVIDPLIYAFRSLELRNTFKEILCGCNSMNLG

Row | Structure (SMILES) | specific binding at mMC3R (displacement of 125I-NDP-MSH) (mMC3R [1]) | pharmacology in words at mMC3R (mMC3R [2]) | pEC50 (mMC4R [3]) | pEC50 (mMC1R) | pEC50 (mMC3R [2]) | pEC50 (mMC5R) | pharmacology in words at mMC1R (mMC1R) | also measured
1 | C[C@@H]1NC(=O)[C@H](CC(N)=O)NC(=O)[C@H](Cc2c[nH]c3ccccc23)NC(=O)[C@H](CCCNC(=N)N)NC(=O)[C@@H](Cc2ccccc2)NC(=O)[C@@H](NC(=O)[C@@H](N)Cc2ccc(O)cc2)CC(=O)NC[C@@H](C(=O)N[C@@H](Cc2ccc(O)cc2)C(N)=O)NC(=O)[C@H](Cc2ccccc2)NC1=O [SEQ ID NO: 7, Tyr-c[Asp-DPhe-Arg-Trp-Asn-Ala-Phe-Dpr]-Tyr] (H-YD[dF]RWNAF[Dap]Y-NH2; lactam 2-9) | ≤ 25% | Slight agonist | 6.35 |  |  |  |  | MC4R versus MC3R selective (mMC4R [3]; agonist EC50 ratio): > 200 fold
2 | CCCC[C@H](NC(=O)[C@H](CO)NC(=O)[C@H](Cc1ccc(O)cc1)NC(=O)[C@H](CO)NC(C)=O)C(=O)N[C@@H](CCC(=O)O)C(=O)N[C@@H](Cc1c[nH]cn1)C(=O)N[C@@H](CCCNC(=N)N)C(=O)N[C@H](Cc1ccccc1)C(=O)N[C@@H](Cc1ccccc1)C(=O)NCC(=O)N[C@@H](CCCCN)C(=O)N1CCC[C@H]1C(=O)N[C@H](C(N)=O)C(C)C [SEQ ID NO: 17, Ac-Ser-Tyr-Ser-Nle-Glu-His-Arg-DPhe-Phe-Gly-Lys-Pro-Val] (Ac-SYS[Nle]EHR[dF]FGKPV-NH2) |  |  |  |  |  |  |  | specific binding at mMC4R (displacement of 125I-NDP-MSH) (mMC4R [4]): ≤ 25%; MC1R versus MC3R selective (mMC1R; agonist EC50 ratio): 850 fold; MC1R versus MC5R selective (mMC1R; agonist EC50 ratio): 62 fold; increase in mMC1R agonist potency (mMC1R; compared with SEQ ID NO:15): 8 fold; decreased mMC3R agonist potency (mMC3R [2]; compared with SEQ ID NO:15): 13 fold; pharmacology in words at mMC4R (mMC4R [3]; slight agonist = some stimulatory response at 100 μM, not enough to determine an EC50): Slight agonist
3 | CCCC[C@H](NC(C)=O)C(=O)N[C@H]1CC(=O)NCCCC[C@@H](C(N)=O)NC(=O)[C@H](C)NC(=O)[C@H](C)NC(=O)[C@H](C)NC(=O)[C@H](Cc2c[nH]cn2)NC1=O [SEQ ID NO: 19, Ac-Nle-c[Asp-His-Ala-Ala-Ala-Lys]] (Ac-[Nle]DHAAAK-NH2; lactam 2-7) |  |  | < 4.00 | < 4.00 | < 4.00 | < 4.00 |  | 
4 | CCCC[C@H](NC(C)=O)C(=O)N[C@H]1CC(=O)NCCCC[C@@H](C(N)=O)NC(=O)[C@H](Cc2ccccc2)NC(=O)[C@H](Cc2ccccc2)NC(=O)[C@H](CCCNC(=N)N)NC(=O)[C@H](Cc2c[nH]cn2)NC1=O [SEQ ID NO: 20, Ac-Nle-c[Asp-His-Arg-Phe-Phe-Lys]] (Ac-[Nle]DHRFFK-NH2; lactam 2-7; C-terminus assumed) |  |  | < 4.00 |  | < 4.00 | < 4.00 | Partial agonist | 
5 | CCCC[C@H](NC(C)=O)C(=O)N[C@H]1CC(=O)NCCCC[C@@H](C(N)=O)NC(=O)[C@H](Cc2ccccc2)NC(=O)[C@H](Cc2ccccc2)NC(=O)[C@@H](CCCNC(=N)N)NC(=O)[C@H](Cc2c[nH]cn2)NC1=O [SEQ ID NO: 21, Ac-Nle-c[Asp-His-DArg-Phe-Phe-Lys]] (Ac-[Nle]DH[dR]FFK-NH2; lactam 2-7) |  |  | < 4.00 | < 4.00 | < 4.00 | < 4.00 |  | 

Further lines, with some results ahead:

Row | specific binding at mMC3R (displacement of 125I-NDP-MSH) (mMC3R [1]) | pharmacology in words at mMC3R (mMC3R [2]) | pEC50 (mMC4R [3]) | pEC50 (mMC1R) | pEC50 (mMC3R [2]) | pEC50 (mMC5R) | pharmacology in words at mMC1R (mMC1R) | Structure (SMILES) | also measured
6 | less than 50% | Slight agonist |  |  |  |  |  | C[C@@H]1NC(=O)[C@H](CC(N)=O)NC(=O)[C@H](Cc2ccccc2)NC(=O)[C@H](Cc2ccccc2)NC(=O)[C@H](CCCNC(=N)N)NC(=O)[C@H](Cc2c[nH]cn2)NC(=O)[C@@H](NC(=O)[C@@H](N)Cc2ccc(O)cc2)CC(=O)NC[C@@H](C(=O)N[C@@H](Cc2ccc(O)cc2)C(N)=O)NC(=O)[C@H](Cc2ccccc2)NC1=O [SEQ ID NO: 8] (H-YDHRFFNAF[Dap]Y-NH2; lactam 2-10) | specific binding at mMC4R (displacement of 125I-NDP-MSH) (mMC4R [4]): less than 50%; decreased mMC1R agonist potency (mMC1R; compared with SEQ ID NO:3): 8 fold
7 | ≤ 25% |  | < 4.00 | < 4.00 | < 4.00 | < 4.00 |  | CCCC[C@H](NC(=O)[C@H](CO)NC(=O)[C@H](Cc1ccc(O)cc1)NC(=O)[C@H](CO)NC(C)=O)C(=O)N[C@@H](CCC(=O)O)C(=O)N[C@@H](Cc1c[nH]cn1)C(=O)N[C@@H](C)C(=O)N[C@@H](C)C(=O)N[C@@H](C)C(=O)NCC(=O)N[C@@H](CCCCN)C(=O)N1CCC[C@H]1C(=O)N[C@H](C(N)=O)C(C)C [SEQ ID NO: 12] (Ac-SYS[Nle]EHAAAGKPV-NH2) | 
8 |  | Partial agonist | < 4.00 |  |  |  | Partial agonist | CCCC[C@H](NC(=O)[C@H](CO)NC(=O)[C@H](Cc1ccc(O)cc1)NC(=O)[C@H](CO)NC(C)=O)C(=O)N[C@@H](CCC(=O)O)C(=O)N[C@@H](Cc1c[nH]cn1)C(=O)N[C@@H](Cc1ccccc1)C(=O)N[C@@H](Cc1ccccc1)C(=O)N[C@@H](CCCNC(=N)N)C(=O)NCC(=O)N[C@@H](CCCCN)C(=O)N1CCC[C@H]1C(=O)N[C@H](C(N)=O)C(C)C [SEQ ID NO: 14] (Ac-SYS[Nle]EHFFRGKPV-NH2) | pharmacology in words at mMC5R (mMC5R): Partial agonist
9 |  |  | < 4.00 |  | < 4.00 |  | Slight agonist | CCCC[C@H](NC(=O)[C@H](CO)NC(=O)[C@H](Cc1ccc(O)cc1)NC(=O)[C@H](CO)NC(C)=O)C(=O)N[C@@H](CCC(=O)O)C(=O)N[C@@H](Cc1c[nH]cn1)C(=O)N[C@H](CCCNC(=N)N)C(=O)N[C@@H](Cc1ccccc1)C(=O)N[C@@H](Cc1ccccc1)C(=O)NCC(=O)N[C@@H](CCCCN)C(=O)N1CCC[C@H]1C(=O)N[C@H](C(N)=O)C(C)C [SEQ ID NO: 16, Ac-Ser-Tyr-Ser-Nle-Glu-His-DArg-Phe-Phe-Gly-Lys-Pro-Val] (Ac-SYS[Nle]EH[dR]FFGKPV-NH2) | pharmacology in words at mMC5R (mMC5R): Slight agonist

From US7582610B2, “Melanocortin receptor templates, peptides and use thereof” (priority 2003, dated 2009)
